The source of these data is ChEMBL document CHEMBL3991601, “The target landscape of clinical kinase drugs” (Science, 2017).

The target in test [1] is ATP-dependent RNA helicase DDX3X (Homo sapiens, UniProt O00571).
The target of test [2] is S-adenosylmethionine synthase isoform type-2 (Homo sapiens, UniProt P31153).
Test [3] concerns the target T1, Glycogen phosphorylase, liver form (Homo sapiens, UniProt P06737).
T1 sequence (P06737 whole entry): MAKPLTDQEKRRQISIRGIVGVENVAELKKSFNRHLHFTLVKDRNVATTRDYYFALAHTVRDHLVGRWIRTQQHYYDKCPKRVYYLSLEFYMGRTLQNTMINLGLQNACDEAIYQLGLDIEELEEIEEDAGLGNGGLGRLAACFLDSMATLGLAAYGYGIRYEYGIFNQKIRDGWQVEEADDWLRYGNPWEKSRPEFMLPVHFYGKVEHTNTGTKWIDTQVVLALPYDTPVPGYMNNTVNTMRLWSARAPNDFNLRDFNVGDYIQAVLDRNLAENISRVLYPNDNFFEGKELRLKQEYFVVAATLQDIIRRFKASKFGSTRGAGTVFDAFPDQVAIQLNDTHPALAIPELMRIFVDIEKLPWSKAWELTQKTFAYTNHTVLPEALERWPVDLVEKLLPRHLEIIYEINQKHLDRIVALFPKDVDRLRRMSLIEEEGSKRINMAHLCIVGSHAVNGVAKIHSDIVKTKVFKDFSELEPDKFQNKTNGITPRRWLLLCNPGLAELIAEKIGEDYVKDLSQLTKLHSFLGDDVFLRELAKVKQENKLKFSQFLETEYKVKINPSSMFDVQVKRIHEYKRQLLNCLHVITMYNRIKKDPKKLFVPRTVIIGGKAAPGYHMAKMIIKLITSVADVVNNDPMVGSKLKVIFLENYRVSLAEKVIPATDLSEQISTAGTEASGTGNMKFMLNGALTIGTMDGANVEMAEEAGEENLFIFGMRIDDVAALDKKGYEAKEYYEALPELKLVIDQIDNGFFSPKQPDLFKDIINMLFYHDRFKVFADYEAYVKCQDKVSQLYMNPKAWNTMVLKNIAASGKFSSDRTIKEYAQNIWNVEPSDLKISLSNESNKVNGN
Type of test: subcellular, K-562, COLO 205, SK-N-BE(2) and MV-4-11, Cell lysate. To be noted: read-out: Kd apparent.

Test [4] addresses Cyclin-dependent kinase 2 (Homo sapiens, UniProt P24941).
The target in test [5] is AP2-associated protein kinase 1 (Homo sapiens, UniProt Q2M2I8).
The target of test [6] is Rho-associated protein kinase 2 (Homo sapiens, UniProt O75116).
In test [7] the target is TGF-beta receptor type-2 (Homo sapiens, UniProt P37173).
Test [8] has as its target Protein kinase C alpha type (Homo sapiens, UniProt P17252).
Test [9] deals with Casein kinase I isoform epsilon (Homo sapiens, UniProt P49674).
In test [10] the target is T2, Serine/threonine-protein kinase Nek2 (Homo sapiens, UniProt P51955).
T2 sequence (P51955 whole entry): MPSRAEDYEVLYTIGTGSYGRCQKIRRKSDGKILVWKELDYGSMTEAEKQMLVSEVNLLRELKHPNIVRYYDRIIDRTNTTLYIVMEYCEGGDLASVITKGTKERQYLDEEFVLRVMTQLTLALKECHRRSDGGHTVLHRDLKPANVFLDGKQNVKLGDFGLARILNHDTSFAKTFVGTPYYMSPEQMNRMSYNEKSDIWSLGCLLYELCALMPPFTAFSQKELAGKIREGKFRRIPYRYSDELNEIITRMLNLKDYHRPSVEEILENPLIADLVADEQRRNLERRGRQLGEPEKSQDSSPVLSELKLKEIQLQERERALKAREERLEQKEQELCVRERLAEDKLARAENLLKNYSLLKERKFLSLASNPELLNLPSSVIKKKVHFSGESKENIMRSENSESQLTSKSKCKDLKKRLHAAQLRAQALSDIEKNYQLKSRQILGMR

Test [11] has as its target T3, Pyridoxal kinase (Homo sapiens, UniProt O00764).
T3 sequence (O00764 whole entry): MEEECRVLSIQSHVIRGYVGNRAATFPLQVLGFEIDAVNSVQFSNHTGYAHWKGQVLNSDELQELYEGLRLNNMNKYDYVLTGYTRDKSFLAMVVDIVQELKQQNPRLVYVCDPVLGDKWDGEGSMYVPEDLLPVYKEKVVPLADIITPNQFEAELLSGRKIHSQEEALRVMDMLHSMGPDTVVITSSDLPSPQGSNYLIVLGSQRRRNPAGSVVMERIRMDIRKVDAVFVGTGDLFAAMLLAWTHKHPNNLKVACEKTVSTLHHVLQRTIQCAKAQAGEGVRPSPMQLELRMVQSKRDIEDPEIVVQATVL

Test [12] concerns the target T4, AarF domain-containing protein kinase 1 (Homo sapiens, UniProt Q86TW2).
T4 sequence (Q86TW2 whole entry): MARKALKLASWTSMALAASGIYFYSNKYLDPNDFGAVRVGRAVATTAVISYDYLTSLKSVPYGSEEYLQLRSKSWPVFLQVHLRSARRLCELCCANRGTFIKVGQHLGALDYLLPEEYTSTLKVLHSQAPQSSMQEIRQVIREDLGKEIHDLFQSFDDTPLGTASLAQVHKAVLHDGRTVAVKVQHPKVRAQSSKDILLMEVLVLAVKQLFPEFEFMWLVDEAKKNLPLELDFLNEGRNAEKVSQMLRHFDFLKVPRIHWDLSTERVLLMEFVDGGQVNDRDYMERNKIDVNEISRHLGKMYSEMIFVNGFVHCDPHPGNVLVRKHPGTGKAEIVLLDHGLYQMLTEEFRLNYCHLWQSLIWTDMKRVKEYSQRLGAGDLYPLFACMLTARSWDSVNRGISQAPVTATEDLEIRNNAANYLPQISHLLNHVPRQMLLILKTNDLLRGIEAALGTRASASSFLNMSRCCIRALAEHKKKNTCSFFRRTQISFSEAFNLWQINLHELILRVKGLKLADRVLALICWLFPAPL

Test [13] concerns the target T5, Ras-related protein Rab-27A (Homo sapiens, UniProt P51159).
T5 sequence (P51159 whole entry): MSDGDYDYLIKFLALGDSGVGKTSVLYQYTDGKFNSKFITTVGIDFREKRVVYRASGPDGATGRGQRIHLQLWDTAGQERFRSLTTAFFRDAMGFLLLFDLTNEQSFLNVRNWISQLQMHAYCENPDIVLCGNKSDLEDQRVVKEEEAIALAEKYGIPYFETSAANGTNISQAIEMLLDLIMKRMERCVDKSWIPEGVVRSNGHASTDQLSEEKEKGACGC

Activity calls are given as the source filed them. For most assays here, no stated cut-off is given here; in the data, actives have a measured Kd and inactives only a lower limit.

Sequence of TGF-beta receptor type-2 (P37173 whole entry): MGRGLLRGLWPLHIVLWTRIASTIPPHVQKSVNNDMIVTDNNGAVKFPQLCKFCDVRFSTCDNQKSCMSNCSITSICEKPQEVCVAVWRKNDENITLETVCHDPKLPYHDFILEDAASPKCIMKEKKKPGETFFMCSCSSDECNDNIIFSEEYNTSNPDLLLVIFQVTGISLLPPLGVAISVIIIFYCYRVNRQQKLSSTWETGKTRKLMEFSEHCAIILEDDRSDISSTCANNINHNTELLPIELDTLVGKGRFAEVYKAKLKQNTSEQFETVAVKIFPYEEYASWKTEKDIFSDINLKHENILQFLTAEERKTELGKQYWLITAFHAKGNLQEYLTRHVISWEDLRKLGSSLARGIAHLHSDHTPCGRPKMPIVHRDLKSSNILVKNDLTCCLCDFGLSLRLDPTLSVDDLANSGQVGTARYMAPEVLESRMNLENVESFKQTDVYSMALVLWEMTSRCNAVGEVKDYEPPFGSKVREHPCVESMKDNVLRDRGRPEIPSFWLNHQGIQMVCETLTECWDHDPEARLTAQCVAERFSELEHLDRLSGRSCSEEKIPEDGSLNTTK
Sequence of ATP-dependent RNA helicase DDX3X (O00571 whole entry, canonical isoform): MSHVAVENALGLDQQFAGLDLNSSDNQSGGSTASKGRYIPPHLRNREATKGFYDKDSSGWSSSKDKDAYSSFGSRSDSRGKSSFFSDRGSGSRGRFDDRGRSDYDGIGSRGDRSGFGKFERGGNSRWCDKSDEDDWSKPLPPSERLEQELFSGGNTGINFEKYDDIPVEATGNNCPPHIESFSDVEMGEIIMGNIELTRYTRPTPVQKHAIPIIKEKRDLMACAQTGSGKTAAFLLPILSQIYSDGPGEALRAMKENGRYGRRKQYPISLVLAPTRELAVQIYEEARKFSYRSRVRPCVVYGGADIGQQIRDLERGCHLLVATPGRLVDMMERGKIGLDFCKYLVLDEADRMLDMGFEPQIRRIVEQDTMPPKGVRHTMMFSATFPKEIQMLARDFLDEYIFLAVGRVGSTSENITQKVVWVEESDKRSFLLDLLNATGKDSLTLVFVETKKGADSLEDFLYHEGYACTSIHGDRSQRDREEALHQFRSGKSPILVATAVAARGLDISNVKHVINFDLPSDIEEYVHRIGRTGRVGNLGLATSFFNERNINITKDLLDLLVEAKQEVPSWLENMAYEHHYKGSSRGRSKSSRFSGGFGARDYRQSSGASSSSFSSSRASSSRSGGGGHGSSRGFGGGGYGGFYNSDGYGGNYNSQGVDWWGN
Sequence of S-adenosylmethionine synthase isoform type-2 (P31153 whole entry, canonical isoform): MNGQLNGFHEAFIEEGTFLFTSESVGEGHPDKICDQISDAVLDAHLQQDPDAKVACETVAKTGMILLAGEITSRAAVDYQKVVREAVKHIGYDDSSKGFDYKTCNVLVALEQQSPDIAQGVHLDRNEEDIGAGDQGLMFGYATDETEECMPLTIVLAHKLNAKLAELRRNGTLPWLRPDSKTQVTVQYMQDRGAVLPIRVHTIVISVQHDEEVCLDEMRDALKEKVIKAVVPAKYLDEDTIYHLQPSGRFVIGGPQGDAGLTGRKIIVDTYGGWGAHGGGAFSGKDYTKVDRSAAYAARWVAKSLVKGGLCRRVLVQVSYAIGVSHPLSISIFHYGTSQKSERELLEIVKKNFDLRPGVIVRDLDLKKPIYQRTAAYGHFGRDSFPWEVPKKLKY
Sequence of Rho-associated protein kinase 2 (O75116 whole entry): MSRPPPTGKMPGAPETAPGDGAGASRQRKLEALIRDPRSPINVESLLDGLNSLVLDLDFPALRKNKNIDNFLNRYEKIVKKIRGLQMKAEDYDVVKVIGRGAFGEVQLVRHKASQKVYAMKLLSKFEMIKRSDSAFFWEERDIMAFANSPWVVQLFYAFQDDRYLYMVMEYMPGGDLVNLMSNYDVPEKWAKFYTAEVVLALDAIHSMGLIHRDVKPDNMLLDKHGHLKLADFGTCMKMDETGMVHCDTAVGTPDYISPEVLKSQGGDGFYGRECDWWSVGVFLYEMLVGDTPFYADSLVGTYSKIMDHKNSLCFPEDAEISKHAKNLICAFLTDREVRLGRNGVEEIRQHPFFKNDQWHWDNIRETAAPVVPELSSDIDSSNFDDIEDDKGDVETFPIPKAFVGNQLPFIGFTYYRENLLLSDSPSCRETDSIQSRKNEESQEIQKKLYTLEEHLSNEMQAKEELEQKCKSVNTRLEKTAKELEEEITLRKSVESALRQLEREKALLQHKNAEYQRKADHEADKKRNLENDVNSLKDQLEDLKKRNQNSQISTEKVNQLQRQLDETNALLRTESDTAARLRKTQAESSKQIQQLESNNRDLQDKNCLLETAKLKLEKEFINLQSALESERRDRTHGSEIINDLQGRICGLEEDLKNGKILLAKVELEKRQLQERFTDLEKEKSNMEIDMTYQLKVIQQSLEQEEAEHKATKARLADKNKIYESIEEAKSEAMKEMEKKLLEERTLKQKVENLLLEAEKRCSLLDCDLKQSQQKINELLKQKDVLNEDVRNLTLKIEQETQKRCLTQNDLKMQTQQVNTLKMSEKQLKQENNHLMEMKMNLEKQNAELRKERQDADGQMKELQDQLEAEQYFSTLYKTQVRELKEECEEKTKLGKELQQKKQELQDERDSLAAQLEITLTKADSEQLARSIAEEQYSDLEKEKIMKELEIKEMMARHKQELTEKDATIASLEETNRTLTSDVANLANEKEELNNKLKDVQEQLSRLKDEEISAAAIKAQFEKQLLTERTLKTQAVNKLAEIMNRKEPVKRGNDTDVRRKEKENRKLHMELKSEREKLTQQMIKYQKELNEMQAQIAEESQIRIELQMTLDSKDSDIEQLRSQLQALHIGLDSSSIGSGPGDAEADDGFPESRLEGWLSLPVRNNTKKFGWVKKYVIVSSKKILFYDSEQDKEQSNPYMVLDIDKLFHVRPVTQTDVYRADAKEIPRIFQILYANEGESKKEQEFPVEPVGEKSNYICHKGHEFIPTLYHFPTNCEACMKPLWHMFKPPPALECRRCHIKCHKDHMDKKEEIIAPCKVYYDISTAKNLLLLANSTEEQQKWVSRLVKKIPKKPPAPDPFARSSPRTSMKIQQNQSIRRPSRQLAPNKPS
Sequence of Casein kinase I isoform epsilon (P49674 whole entry, canonical isoform): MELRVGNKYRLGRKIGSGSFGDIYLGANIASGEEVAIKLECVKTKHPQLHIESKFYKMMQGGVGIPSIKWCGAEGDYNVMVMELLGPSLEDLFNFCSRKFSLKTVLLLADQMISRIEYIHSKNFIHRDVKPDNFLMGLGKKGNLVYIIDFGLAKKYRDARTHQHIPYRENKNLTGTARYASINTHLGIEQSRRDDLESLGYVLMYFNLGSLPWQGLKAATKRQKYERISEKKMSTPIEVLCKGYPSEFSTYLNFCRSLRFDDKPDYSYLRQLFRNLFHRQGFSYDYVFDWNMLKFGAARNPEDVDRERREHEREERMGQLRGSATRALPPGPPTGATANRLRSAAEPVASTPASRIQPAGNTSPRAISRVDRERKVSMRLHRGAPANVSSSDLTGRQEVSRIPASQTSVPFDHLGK
Sequence of AP2-associated protein kinase 1 (Q2M2I8 whole entry): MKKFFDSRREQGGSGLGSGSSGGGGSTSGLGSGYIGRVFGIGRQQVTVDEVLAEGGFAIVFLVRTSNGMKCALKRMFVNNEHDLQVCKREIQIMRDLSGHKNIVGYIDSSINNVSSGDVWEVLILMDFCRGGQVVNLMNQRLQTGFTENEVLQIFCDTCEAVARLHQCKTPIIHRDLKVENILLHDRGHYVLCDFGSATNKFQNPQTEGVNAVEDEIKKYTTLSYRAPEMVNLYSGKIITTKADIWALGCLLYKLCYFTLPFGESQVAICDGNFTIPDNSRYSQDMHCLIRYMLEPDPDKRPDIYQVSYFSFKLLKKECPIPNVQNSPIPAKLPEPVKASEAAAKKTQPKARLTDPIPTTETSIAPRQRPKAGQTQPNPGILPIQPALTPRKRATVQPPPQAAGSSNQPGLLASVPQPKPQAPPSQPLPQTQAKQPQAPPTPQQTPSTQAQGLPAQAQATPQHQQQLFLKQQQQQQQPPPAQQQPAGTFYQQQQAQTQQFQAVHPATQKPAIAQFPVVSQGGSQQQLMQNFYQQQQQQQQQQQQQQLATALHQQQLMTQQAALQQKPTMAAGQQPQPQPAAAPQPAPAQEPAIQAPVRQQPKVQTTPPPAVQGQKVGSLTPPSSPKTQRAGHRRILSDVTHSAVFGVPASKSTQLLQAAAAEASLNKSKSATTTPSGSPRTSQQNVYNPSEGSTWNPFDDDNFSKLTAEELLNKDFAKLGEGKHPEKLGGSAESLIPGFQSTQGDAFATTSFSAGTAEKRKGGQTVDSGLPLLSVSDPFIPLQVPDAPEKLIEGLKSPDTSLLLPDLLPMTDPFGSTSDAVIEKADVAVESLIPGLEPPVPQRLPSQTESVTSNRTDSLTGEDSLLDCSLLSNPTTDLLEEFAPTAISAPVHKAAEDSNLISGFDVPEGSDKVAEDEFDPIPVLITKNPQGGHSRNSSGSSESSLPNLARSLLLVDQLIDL

`O=C(O)c1ccc2c(c1)nc(Nc1cccc(Cl)c1)c1ccncc12` [SILMITASERTIB]: the Kd was > 30 µM (inactive) in [1]; > 30 µM (inactive) in [2]; > 30 µM (inactive) in [3]; 1.69 µM (active) in test [4]; > 30 µM (inactive) in [5]; > 30 µM (inactive) in test [6]. The Kd in test [7], in [8], in test [9], in test [10], in test [11] and in test [12] was > 30 µM (inactive) in each case.

For `CN1CCN(c2nc(C3=C(c4c[nH]c5ccccc45)C(=O)NC3=O)c3ccccc3n2)CC1` [SOTRASTAURIN], the Kd in test [1], in test [2], in test [3], in test [4], in test [5] and in test [6] was > 30 µM (inactive) throughout. Further, the Kd in test [7], in [13], in test [9], in test [10], in [11] and in test [12] was > 30 µM (inactive) in each case.

For the compound `C=CCN(/C=C1/C(=O)O[C@H](COC)[C@@]2(C)C1=C(O)C(=O)C1=C2[C@H](OC(C)=O)C[C@]2(C)C(=O)CC[C@@H]12)CC=C` [SONOLISIB], the Kd in test [1], in [2], in test [3], in test [4], in test [5] and in test [6] was > 30 µM (inactive) throughout. In addition, the Kd in test [7], in test [8], in [9], in [10], in test [11] and in test [12] was > 30 µM (inactive) throughout.

On to `Cn1c(=O)c(F)c(Nc2ccc(I)cc2F)c2c(=O)n(C[C@@H](O)CO)cnc21` [TAK-733], for which the Kd in test [1], in test [2], in test [3], in [4], in test [5] and in [6] was > 30 µM (inactive) each time. Also, the Kd in test [7], in test [8], in [9], in test [10], in [11] and in test [12] was > 30 µM (inactive) throughout.

Take `FC(F)(F)c1ccc(CNc2ccc(Cc3c[nH]c4ncc(Cl)cc34)cn2)cn1` [PEXIDARTINIB]: the Kd was > 30 µM (inactive) in test [1]; > 30 µM (inactive) in test [3]; > 30 µM (inactive) in test [4]; 13.7 µM (active) in test [5]; > 30 µM (inactive) in test [6]; > 30 µM (inactive) in [7]. Also, the Kd in [13], in test [8], in [9], in [10], in [11] and in test [12] was > 30 µM (inactive) each time.

On to `CC(C)(O)CC(=O)NCCn1ccc2ncnc(Nc3ccc(Oc4cccc(C(F)(F)F)c4)c(Cl)c3)c21` [TAK-285], for which the Kd in test [1], in [2], in [3], in [4], in test [5] and in test [6] was > 30 µM (inactive) throughout. The Kd in test [7], in test [8], in test [9], in [10], in [11] and in test [12] was > 30 µM (inactive) each time.

For `CCc1nc(C(N)=O)c(Nc2ccc(N3CCC(N4CCN(C)CC4)CC3)c(OC)c2)nc1NC1CCOCC1` [GILTERITINIB], the Kd in [1] was > 30 µM (inactive); in test [2], > 30 µM (inactive); in test [3] it was > 30 µM (inactive); in [4] it was > 30 µM (inactive); in test [5], 0.025 µM (active); in test [6], > 30 µM (inactive). The Kd in test [7] was > 30 µM (inactive); in [13], > 30 µM (inactive); in test [9], > 30 µM (inactive); in test [10], 0.247 µM; in test [11], > 30 µM (inactive); in [12], 0.152 µM (active).

For `C=CC(=O)Nc1cccc(Nc2nc(Nc3ccc(N4CCN(C(C)=O)CC4)cc3OC)ncc2C(F)(F)F)c1` [ROCILETINIB], the Kd in test [1], in test [2], in [3], in test [4], in test [5] and in test [6] was > 30 µM (inactive) each time. Also, the Kd in [7], in [8], in test [9], in test [10], in test [11] and in test [12] was > 30 µM (inactive) in each case.

With `Cc1c(Cn2c(C)nc3c(C(=O)O)cc(N4CCOCC4)cc32)cccc1C(F)(F)F` [GSK-2636771], the Kd in [1], in test [2], in test [3], in test [4], in test [5] and in test [6] was > 30 µM (inactive) each time. Further, the Kd in [7], in test [8], in test [9], in test [10], in [11] and in test [12] was > 30 µM (inactive) throughout.
